From article PMC10254170, “Diastereoselective Synthesis of the Borylated D-Galactose Monosaccharide 3-Boronic-3-Deoxy-D-Galactose and Biological Evaluation in Glycosidase Inhibition and in Cancer for Boron Neutron Capture Therapy (BNCT)” (Molecules, 2023)
Where two headings read alike, the source gives them in different places.

Experiments:
[1] = tested on: yeast α-glucosidase; experiment: Glycosidase inhibition, yeast α-glucosidase; format: biochemical; conditions: for inhibition %: in methanol
From the text: (§1) Glycosidase modulation studies need to explore selectivity as well as potency. Our drugs and controls are therefore screened against a panel of glycosidases in methanol (Table 1) to identify the glycosidase-related disease area(s), selectivity profile, and potency of biological action for each drug. The presence of organic boron covalently bonded to the drug structure also grants a reduced toxicity profile. Following the glycosidase inhibition range recommendations, an IC50 value >250 μm denotes weak inhibition, 100–249 μm denotes moderate inhibition, 10–99 μm good inhibition, 0.1–9 μm potent inhibition, and <0.1 μm very potent inhibition. […] Our boronated D-galactose 7 represents a novel lead in glycosidase inhibition.
(§2) The glycosidases screened are the following: rice α-glucosidase, yeast α-glucosidase, Bacillus α-glucosidase, rat intestinal maltase α-glucosidase, almond β-glucosidase, bovine liver β-glucosidase, coffee beans α-galactosidase, bovine liver β-galactosidase, Jack bean α-mannosidase, snail β-mannosidase, Penicillium decumbens α-L-rhamnosidase, bovine kidney α-L-fucosidase, Eschierichia coli β-glucuronidase, bovine liver β-glucuronidase, porcine kidney trehalase, Aspergillus niger amyloglucosidase, and bovine kidney N-acetyl-β-glucosaminidase. The disease areas for each glycosidase are summarized in [1].
(§3) The enzymes α-glucosidase (from yeast), β-glucosidases (from almond and bovine liver), α-galactosidase (from coffee beans), β-galactosidase (from bovine liver), α-mannosidase (from Jack bean), β-mannosidase (from snail), α-L-rhamnosidase (from Penicillium decumbens), α-L-fucosidase (from bovine kidney), trehalase (from porcine kidney), β-glucuronidases (from E. coli and bovine liver), amyloglucosidase (from A. niger), para-nitrophenyl glycosides, and various disaccharides were purchased from Sigma-Aldrich Co.
(§4) Brush border membranes were prepared from the rat small intestine according to the method of Kessler et al. and were assayed at pH 6.8 for rat intestinal maltase using maltose. For rat intestinal maltase, porcine kidney trehalase, and A. niger amyloglucosidase activities, the reaction mixture contained 25 mM maltose and the appropriate amount of enzyme, and the incubations were performed for 10–30 min at 37 °C. The reaction was stopped by heating at 100 °C for 3 min. After centrifugation (600 g; 10 min), the resulting reaction mixture was added to the Glucose CII-test Wako (Wako Pure Chemical Ind., Osaka, Japan). The absorbance at 505 nm was measured to determine the amount of the released D-glucose. Other glycosidase activities were determined using an appropriate para-nitrophenyl glycoside as substrate at the optimum pH of each enzyme. The reaction mixture contained 2 mM of the substrate and the appropriate amount of enzyme. The reaction was stopped by the addition of 400 mM Na2CO3. The released para-nitrophenol was measured spectrometrically at 400 nm. All reactions run in methanol.

[2] = tested on: rat intestinal maltase α-glucosidase; experiment: Glycosidase inhibition, rat intestinal maltase; format: biochemical; conditions: for inhibition %: in methanol
From the text: as §1, §2, §4

[3] = tested on: snail β-mannosidase; experiment: Glycosidase inhibition, snail β-mannosidase; format: biochemical; conditions: for inhibition %: in methanol
From the text: as §1, §2, §3, §4

[4] = molecular target: T1, bovine kidney α-L-fucosidase (Bos taurus, UniProt Q2KIM0); experiment: Glycosidase inhibition, bovine kidney α-L-fucosidase; format: biochemical
T1 construct: purchased Sigma-Aldrich Co; host or cells: bovine kidney
T1 sequence (Q2KIM0 23-468): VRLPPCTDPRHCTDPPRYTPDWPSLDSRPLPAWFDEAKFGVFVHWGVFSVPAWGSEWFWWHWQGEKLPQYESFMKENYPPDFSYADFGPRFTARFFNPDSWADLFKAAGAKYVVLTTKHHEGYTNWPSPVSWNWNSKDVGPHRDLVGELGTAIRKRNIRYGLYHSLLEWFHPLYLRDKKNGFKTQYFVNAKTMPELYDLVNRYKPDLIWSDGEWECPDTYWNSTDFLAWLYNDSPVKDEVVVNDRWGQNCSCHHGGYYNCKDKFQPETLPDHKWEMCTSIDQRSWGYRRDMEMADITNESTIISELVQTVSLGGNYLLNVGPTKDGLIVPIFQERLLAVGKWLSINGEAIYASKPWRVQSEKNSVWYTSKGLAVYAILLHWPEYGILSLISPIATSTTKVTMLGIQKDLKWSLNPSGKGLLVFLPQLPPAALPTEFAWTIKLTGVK
From the text: as §1, §2, §3, §4

[5] = molecular target: T2, E. coli β-glucuronidase (Escherichia coli, UniProt P05804); experiment: Glycosidase inhibition, E. coli β-glucuronidase; format: biochemical
T2 construct: purchased Sigma-Aldrich Co
From the text: as §1, §2, §3, §4

[6] = tested on: U87 (glioblastoma); experiment: Cancer screening (MTT growth inhibition), U87; format: cell-based; conditions: 25 µM of drug, 72 h, n = 3, mean ± SEM
Protocol: (§5) All test agents were prepared as stock solutions (20 mM) in dimethyl sulfoxide (DMSO) and stored at −20 °C. Cell lines used in the study included: HT29 (colorectal carcinoma), U87 and SJ-G2 (glioblastoma), MCF-7 (breast carcinoma), A2780 (ovarian carcinoma), H460 (lung carcinoma), A431 (skin carcinoma), Du145 (prostate carcinoma), BE2-C (neuroblastoma), MiaPaCa-2 (pancreatic carcinoma), SMA560 (spontaneous murine astrocytoma), and ADDP (Cis Res Ovarian), together with one non-tumor-derived normal breast cell line (MCF10A). All cell lines were incubated in a humidified atmosphere with 5 % CO2 at 37 °C. The cancer cell lines were maintained in Dulbecco’s modified Eagle’s medium (DMEM; Sigma, Australia) supplemented with fetal bovine serum (10%), sodium pyruvate (10 mM), penicillin (100 IUmL^−1), streptomycin (100 µg mL^−1), and L-glutamine (2 mM).
(§6) Growth inhibition was determined by plating cells in duplicate in medium (100 µL) at a density of 2500–4000 cells per well in 96-well plates. On day 0 (24 h after plating), when the cells are in logarithmic growth, medium (100 µL) with or without the test agent was added to each well. After 72 h of drug exposure, growth inhibitory effects were evaluated using the (3-(4,5-dimethyltiazol-2-yl)-2,5-diphenyltetrazolium bromide) (MTT) assay and absorbance read at 540 nm. The percentage growth inhibition was calculated at a fixed concentration of 25 µM, based on the difference between the optical density values on day 0 and those at the end of drug exposure. Each data point is the mean ± the standard error of the mean (SEM) calculated from three replicates, which were performed on separate occasions and in separate cell line passages.

[7] = tested on: MCF-7 (breast carcinoma); experiment: Cancer screening (MTT growth inhibition), MCF-7; format: cell-based; conditions: 72 h, n = 3, mean ± SEM; for Percentage (%) cell growth inhibition: 25 µM of drug
Protocol: as §5, §6

[8] = tested on: A2780 (ovarian carcinoma); experiment: Cancer screening (MTT growth inhibition), A2780; format: cell-based; conditions: 72 h, n = 3, mean ± SEM; for Percentage (%) cell growth inhibition: 25 µM of drug
Protocol: as §5, §6

[9] = tested on: A431 (skin carcinoma); experiment: Cancer screening (MTT growth inhibition), A431; format: cell-based; conditions: 72 h, n = 3, mean ± SEM; for Percentage (%) cell growth inhibition: 25 µM of drug
Protocol: as §5, §6

[10] = tested on: Du145 (prostate carcinoma); experiment: Cancer screening (MTT growth inhibition), Du145; format: cell-based; conditions: 72 h, n = 3, mean ± SEM; for Percentage (%) cell growth inhibition: 25 µM of drug
Protocol: as §5, §6

[11] = tested on: SJ-G2 (glioblastoma); experiment: Cancer screening (MTT growth inhibition), SJ-G2; format: cell-based; conditions: 72 h, n = 3, mean ± SEM; for Percentage (%) cell growth inhibition: 25 µM of drug
Protocol: as §5, §6

[12] = tested on: MiaPaCa-2 (pancreatic carcinoma); experiment: Cancer screening (MTT growth inhibition), MIA-Pa-Ca2; format: cell-based; conditions: 72 h, n = 3, mean ± SEM; for Percentage (%) cell growth inhibition: 25 µM of drug
Protocol: as §5, §6

[13] = at 100 μM, in methanol, read-out: inhibition %
[14] = at 100 μM, read-out: NI: No inhibition

T2 sequence (P05804 whole entry): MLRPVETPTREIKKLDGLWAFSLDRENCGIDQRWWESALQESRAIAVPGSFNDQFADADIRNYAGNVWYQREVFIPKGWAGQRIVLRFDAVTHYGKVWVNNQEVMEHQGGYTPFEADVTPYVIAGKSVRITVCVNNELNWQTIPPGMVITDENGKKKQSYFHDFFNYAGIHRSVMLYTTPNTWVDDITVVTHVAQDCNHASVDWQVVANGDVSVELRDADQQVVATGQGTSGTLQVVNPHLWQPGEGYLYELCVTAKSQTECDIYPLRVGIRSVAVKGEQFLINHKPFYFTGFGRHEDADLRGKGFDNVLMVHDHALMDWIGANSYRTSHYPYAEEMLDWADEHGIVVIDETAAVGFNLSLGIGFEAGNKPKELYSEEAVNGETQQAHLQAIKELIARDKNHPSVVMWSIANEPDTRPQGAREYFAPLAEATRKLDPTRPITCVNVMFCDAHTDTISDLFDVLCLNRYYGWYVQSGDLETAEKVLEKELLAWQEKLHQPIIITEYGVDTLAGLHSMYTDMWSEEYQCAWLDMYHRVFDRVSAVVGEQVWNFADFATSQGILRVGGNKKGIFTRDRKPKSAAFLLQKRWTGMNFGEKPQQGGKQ

| Molecule | NI: No inhibition ([1]; at 100 μM) | inhibition % ([1]; at 100 μM) [%] | NI: No inhibition ([2]; at 100 μM) | inhibition % ([2]; at 100 μM) [%] | NI: No inhibition ([3]; at 100 μM) | inhibition % ([3]; at 100 μM) [%] | Percentage (%) cell growth inhibition [6] [%] | Percentage (%) cell growth inhibition [7] [%] | Percentage (%) cell growth inhibition [8] [%] | Percentage (%) cell growth inhibition [9] [%] | Percentage (%) cell growth inhibition [10] [%] | Percentage (%) cell growth inhibition [11] [%] | Percentage (%) cell growth inhibition [12] [%] | also measured |
| --- | --- | --- | --- | --- | --- | --- | --- | --- | --- | --- | --- | --- | --- | --- |
| N[C@@H](Cc1ccc(B(O)O)cc1)C(=O)O [BPA, 4-borono-L-phenylalanine] | NI (No inhibition (less than 50% inhibition at 100 μM)) | 0 | NI (No inhibition (less than 50% inhibition at 100 μM)) | 0 | NI (No inhibition (less than 50% inhibition at 100 μM)) | 2.1 |  |  |  |  |  |  |  | inhibition at 100 µM [4, 13]: 0%; inhibition at 100 µM [4, 14]: < 50%; inhibition at 100 µM [5, 13]: 0.5%; inhibition at 100 µM [5, 14]: < 50%; inhibition at 25 µM ([6]; read-out: Percentage (%) cell growth inhibition): < 0%; inhibition at 25 µM ([7]; Homo sapiens, MCF7, 25 µM of drug, read-out: Percentage (%) cell growth inhibition): < 0%; inhibition at 25 µM ([8]; Homo sapiens, A2780, 25 µM of drug, read-out: Percentage (%) cell growth inhibition): 4 ± 1%; inhibition at 25 µM ([9]; Homo sapiens, A-431, 25 µM of drug, read-out: Percentage (%) cell growth inhibition): 4 ± 6%; inhibition at 25 µM ([10]; Homo sapiens, DU-145, 25 µM of drug, read-out: Percentage (%) cell growth inhibition): 19 ± 10%; inhibition at 25 µM ([11]; SJ-G2, 25 µM of drug, read-out: Percentage (%) cell growth inhibition): 5 ± 8%; inhibition at 25 µM ([12]; Homo sapiens, MIA PaCa-2, 25 µM of drug, read-out: Percentage (%) cell growth inhibition): 3 ± 3% |
| N[C@@H](Cc1ccc(B(O)O)cc1)C(=O)O [^10B-BPA] | NI (No inhibition (less than 50% inhibition at 100 μM)) | 0 | NI (No inhibition (less than 50% inhibition at 100 μM)) | 0 | NI (No inhibition (less than 50% inhibition at 100 μM)) | 0.3 | <0 | 1 ± 3 | 8 ± 4 | 4 ± 4 | 15 ± 9 | 5 ± 10 | 11 ± 3 | NI: No inhibition ([4]; at 100 μM): NI (No inhibition (less than 50% inhibition at 100 μM)); inhibition % ([4]; at 100 μM, in methanol): 0%; inhibition % ([5]; at 100 μM, in methanol): 2.4% |
| Borocaptate sodium [BSH] |  |  |  |  |  |  | <0 | 15 ± 3 | 2 ± 5 | <0 | 0 ± 8 | 3 ± 8 | 2 ± 6 | NI: No inhibition ([1]; at 1000 μM): NI (No inhibition (less than 50% inhibition at 1000 μM)); inhibition % ([1]; at 1000 μM): 6.9%; NI: No inhibition ([2]; at 1000 μM): NI (No inhibition (less than 50% inhibition at 1000 μM)); inhibition % ([2]; at 1000 μM): 0%; NI: No inhibition ([3]; at 1000 μM): NI (No inhibition (less than 50% inhibition at 1000 μM)); inhibition % ([3]; at 1000 μM): 19.2%; NI: No inhibition ([4]; at 1000 μM): NI (No inhibition (less than 50% inhibition at 1000 μM)); inhibition % ([4]; at 1000 μM, in methanol): 0%; inhibition % ([5]; at 1000 μM, in methanol): 6% |
